In patent US20090148382A1, “Technetium- and rhenium-bis(heteroaryl) complexes, and methods of use thereof” (Molecular Insight Pharmaceuticals, Inc., priority 2004, published 2009):
Blank lines part the entries; values can stand above or below the molecule they belong to.

Key:
[1] = Stability to transchelation (cysteine / histidine challenge); type: physicochemical; settings: 99mTc-labeled HPLC purified product
Protocol: The stability of the complex to transchelation was investigated by incubating two separate samples of 4b with 1000 fold excess of cysteine and histidine in PBS buffer heated to 37° C.

[2] = Biodistribution / blood clearance of 99mTc complex; type: in vivo
Text: We have also explored extensively the use as ligands for metal tricarbonyls, e.g., Re and Tc tricarbonyls, of protected and unprotected versions of [ε-{N,N-di(pyridyl-2-methyl)}α-(fmoc)lysine] (Fmoc-DpK). The choice of the tridentate DpK for the exploration of a single amino acid chelate was based on the excellent RCP and RCY, and the potential to prepare radiopharmaceutical kits. The pyridine-2-methylamine was easily derivatized into the amino acid.
This approach enables the creation of libraries containing the {M(CO)3}^1+ core. We have begun to define the biological fate of the ^99mTc-bis(heteroaryl) complexes, allowing us to compare a series of future tridentate analogs. The dipyridine labeling proceeded in high yield and was stable to excess histidine and cysteine challenges for more than 18 hours. […] Activity decreased in all tissues as a function of time, except in the GI tract, which increased with time.

[3] = biological target: T1, formyl peptide receptor (Homo sapiens, UniProt P21462); assay: Affinity for the formyl peptide receptor by flow cytometry; type: binding; settings: fluorescein labeled fNLFNTK as the reference ligand
T1 sequence (P21462 1-350): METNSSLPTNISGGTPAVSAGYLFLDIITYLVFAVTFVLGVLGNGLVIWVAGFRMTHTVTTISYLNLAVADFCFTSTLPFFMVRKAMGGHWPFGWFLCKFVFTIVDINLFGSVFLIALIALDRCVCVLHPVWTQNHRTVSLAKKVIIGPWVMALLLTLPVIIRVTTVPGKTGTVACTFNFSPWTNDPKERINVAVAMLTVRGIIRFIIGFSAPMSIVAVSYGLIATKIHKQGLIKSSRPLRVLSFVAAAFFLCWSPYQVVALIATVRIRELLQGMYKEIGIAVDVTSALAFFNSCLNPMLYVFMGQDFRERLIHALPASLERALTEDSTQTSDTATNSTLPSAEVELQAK
Protocol: The affinity of 5 and 6 for the formyl peptide receptor was determined by flow cytometry using fluorescein labeled fNLFNTK as the reference ligand.

- degradation in challenge experiments ([1]; 100 mM Cysteine or Histidine in PBS pH 7.2 at 37° C. for 18 hrs): no degradation
Molecule: O=C(NC(CCCCN(Cc1ccccn1)Cc1ccccn1)C(=O)O)OCC1c2ccccc2-c2ccccc21 (stereo not drawn) [Fmoc-DpK, [ε-{N,N-di(pyridyl-2-methyl)}α-(fmoc)lysine]]

- degradation in challenge experiments ([1]; 10 mM Cysteine or Histidine in PBS pH 7.2 at 37° C. for 20 hrs): no degradation
Molecule: O=C1c2ccccc2C(=O)N1CCCCN(Cc1ccccn1)Cc1ccccn1 [[{N,N-di(pyridyl-2-methyl)}N-butyl-phthlalimide]]

Molecule: [^99mTc(CO)3(DpK)]
- blood clearance % ID/g ([2]; 5 minutes): 0.6 % ID/g
- blood clearance % ID/g ([2]; 30 minutes): 0.07 % ID/g

- Kd [3]: 27 ± 13 nM
Molecule: fMLF[(SAACQ-Re(CO)3)^+]G [Compound 6]
